These results are taken from patent US20070027109A1 (priority 2002, published 2007).

One series concerns HIV-1 RoJo. The series is described as follows: PBMC assay, HIV-1 RoJo replication (RT activity). It is filed as cell-based. As to conditions: for IC50: RoJo, PBMC; for IC50 (50% inhibition of virus replication): 6 days; for anti-viral activity against HIV-1 RoJo virus: in vitro. An excerpt:
Human peripheral blood mononuclear cells from a minimum of two donors, that have been blasted with PHA and IL-2, were counted, viability determined by Trypan Blue dye exclusion and mixed in equal ratios. Pooled donors were used to minimize the variability observed between individual donors which results from quantitative and qualitative differences in HIV infection and overall response to the PHA and IL-2 of primary lymphocyte populations. […] Fifty microliters of cells were then distributed to the inner 60 wells of a 96 well round bottom microtiter culture plate in a standard format developed by the Infectious Disease Research department of Southern Research Institute. Each plate contains cell control wells (cells only), virus control wells (cells plus virus), and experimental wells (drug plus cells plus virus). Serially diluted compounds were added to the microtiter plate followed by the appropriate pretitered dilution of HIV-1 RoJo. All samples were assayed in triplicate with a replicate plate without virus for the determination of compound toxicity. The final volume per well was 200 μL. The assay was incubated for 6 days in a humidified atmosphere at 37° C., 5% CO2, after which supernatants were collected, for analysis of RT activity and sister plates analyzed for cell viability by MTS dye reduction. Wells were also examined microscopically and any abnormalities noted.
Reverse transcriptase (RT) activity was measured in cell-free supernatants. Tritiated thymidine triphosphate (NEN) (TTP) was resuspended in distilled H2O at 5 Ci/mL. Poly rA and oligo dT were prepared as a stock solution which was kept at −20° C. The RT reaction buffer was prepared fresh on a daily basis and consists of 125 μL 1.0 M EGTA, 125 μL dH2O, 110 μL 10% SDS, 50 μL 1.0 M Tris (pH 7.4), 50 μL 1.0 M DTT, and 40 μL 1.0 M MgCl2. These three solutions were mixed together in a ratio of two parts TTP, one part poly rA:oligo dT, and one part reaction buffer. Ten microliters of this reaction mixture were placed in a round bottom microtiter plate and 15 μL of virus containing supernatant was added and mixed. The plate was incubated at 37° C. in a water bath with a solid support to prevent submersion of the plate and incubated for 60 minutes. Following reaction, the reaction volume was spotted onto pieces of DE81 paper, washed 5 times for 5 minutes each in a 5% sodium phosphate buffer, two times for one minute each in distilled water, two times for one minute each in 70% ethanol, and then dried.
The IC50 and TC50 values were calculated by linear regression. The TI represents the ratio of the TC50/IC50, and is used to determine relative potency between compounds.

In another series the test system is TEKI. The series is described as follows: PBMC assay, HIV-1 TEKI. In kind it is cell-based.
The subject of series [1] is Subtype B 302056 (91US056). The series is described as follows: PBMC assay, HIV-1 subtype B. It is filed as cell-based.
The subject of another series is HIV-1 Ba-L. The series is described as follows: Monocyte/macrophage assay, HIV-1 Ba-L (p24 ELISA). It is filed as cell-based. As to conditions: monocytes. An excerpt: (§1) Peripheral blood monocytes were isolated from normal HIV-1 negative donors by plastic adherence following ficoll hypaque purification of the buffy coat, as described above for PBMCs. In many cases the same donor used to produce the PBMC populations was also used to produce monocyte/macrophages, however unlike PBMC population monocyte/macrophage, donors were never pooled. Following a two hour adherence in RPMI 1640 without phenol red supplemented with 10% human pooled AB serum (heat inactivated), 2 mM L-glutamine, 100 U/mL penicillin, 100 μg/mL streptomycin, 10 μg/mL gentamycin, cultures were washed to remove non-adherent cells. […] Adherent cells were assessed for purity by nonspecific esterase staining (a-napthyl butyrate specific esterase, Sigma Chemical Co.), and/or viability by Trypan Blue dye exclusion, counted and resuspended in RPMI 1640 supplemented with 10% Fetal Bovine Serum (heat inactivated), 2 mM L-glutamine, 100 U/mL penicillin, 100 μg/mL streptomycin, 10 μg/mL gentamycin at 1×10^6 monocytes per ml. […] HIV p24 antigen content to assess virus replication was measured at assay termination by a commercially available p24 ELISA assay (Coulter) on cell-free supernatants, and compound cytotoxicity by MTS dye reduction. […]
(§2) ELISA kits were purchased from Coulter Electronics. […] Control curves were generated in each assay to accurately quantitate the amount of p24 antigen in each sample. […]
In general terms: ELISA stands for enzyme-linked immunosorbent assay.

For the next series, the system named is SLKA. The series is described as follows: PBMC assay, HIV-1 SLKA. It is filed as cell-based.
A further series relates to monocyte/macrophages. The series is described as follows: MTS staining for cell viability, monocyte/macrophages. In kind it is cell-based, human. The source says:
Peripheral blood monocytes were isolated from normal HIV-1 negative donors by plastic adherence following ficoll hypaque purification of the buffy coat, as described above for PBMCs. In many cases the same donor used to produce the PBMC populations was also used to produce monocyte/macrophages, however unlike PBMC population monocyte/macrophage, donors were never pooled. […] The monocytes were released from the plastic by vigorous pipetting with Ca^2+ and Mg^2+ free PBS. […] The monocytes (1×10^5 per 0.2 cm well) were then cultured for six days, allowing maturation of the cells to a macrophagelike phenotype. […] Cultures were washed a final time by media removal 24 hours post infection, fresh compound added and the cultures continued for an additional six days. The assays were preformed using a standardized microtiter plate format, which uses only the inner 60 wells of a 96 well plate for assay purposes. The outer rows contain media and acts an a evaporation barrier. Each plate contains cell control wells (cells only), virus control wells (cells plus virus), and experimental wells (drug plus cells plus virus). HIV p24 antigen content to assess virus replication was measured at assay termination by a commercially available p24 ELISA assay (Coulter) on cell-free supernatants, and compound cytotoxicity by MTS dye reduction. […]

In a further series the test system is HIV-1 ADA. The series is described as follows: Monocyte/macrophage assay, HIV-1 ADA (p24 ELISA). It is filed as cell-based. To be noted: monocytes.
From the text: as §1, §2

In a further series the test system is Subtype A RW/92/016. The series is described as follows: PBMC assay, HIV-1 subtype A. It is filed as cell-based. As to conditions: Subtype A RW/92/016, PBMC.
In a further series the test system is HIV-2 (CDC 310319). The series is described as follows: PBMC assay, HIV-2. It is filed as cell-based.
The subject of a further series is Subtype C BR/92/025. The series is described as follows: PBMC assay, HIV-1 subtype C. It is filed as cell-based. To be noted: Subtype C BR/92/025, PBMC.
The test system of the next series is Subtype D UG/92/046. The series is described as follows: PBMC assay, HIV-1 subtype D. In kind it is cell-based. As to conditions: Subtype D UG/92/046, PBMC.
The test system of another series is Subtype F BR/93/020. The series is described as follows: PBMC assay, HIV-1 subtype F. In kind it is cell-based. As to conditions: Subtype F BR/93/020, PBMC.
The subject of another series is Subtype G Jv1083. The series is described as follows: PBMC assay, HIV-1 subtype G. It is filed as cell-based.
The test system of another series is SIVmac251. The series is described as follows: PBMC assay, SIVmac251. In kind it is cell-based, SIV.
Another series deals with Subtype O BCOF-01. The series is described as follows: PBMC assay, HIV-1 subtype O. In kind it is cell-based. As to conditions: Subtype O BCOF-01, PBMC.
Another series has as its system WeJo. The series is described as follows: PBMC assay, HIV-1 WeJo. It is filed as cell-based.
The test system of series [2] is HIV-1 clinical isolates, SIV and HIV-2. As to conditions: all viruses of Table 8. As to the method:
The inhibition of HIV-1 ADA and BaL replication in monocyte/macrophages was also assessed.
(§3) Human immunodeficiency virus type 1 (HIV-1) strains Ba-L, ADA, SIVmac251, HIV-2 (CDC3 10319) and the subtype representative strains (Table 6) were obtained from the NIAID AIDS Research and Reference Reagent Program. The low passage pediatric isolates SLKA, WeJo and TeKi were derived in the laboratories of Southern Research Institute.

For another series, the system named is MDR769. As to conditions: MDR769, PBMC. As to the method: as §3
PBMC assays were carried out as described in Example 6.
Reverse transcriptase (RT) activity was measured in cell-free supernatants as described in Example 6.

Another series has as its system Subtype E CMU02. The series is described as follows: PBMC assay, HIV-1 subtype E. In kind it is cell-based.
Where [3] appears, read: IC50 basis, HIV-1 RoJo, PBMCs, Example 6.

Values joined by “and” are separate entries in the source; they are usually repeats but may differ in a detail not shown here. Equal values may be shown once. Read-outs that look alike come from different tables or passages of the source.

What is called IC50 is the concentration that gives 50% inhibition. One may read the CC50 as the concentration that lowers cell viability or growth by half. Regarding `Cc1cn([C@H]2C[C@H](N=[N+]=[N-])[C@@H](CO)O2)c(=O)[nH]c1=O` [AZT], the 50% inhibitory concentration (IC50) with HIV-1 RoJo (Example 7, read-out: IC50) came out at 2 nM; in the series on TEKI it was 10 nM; in series [1] (read-out: IC50), 10 nM; in the series with HIV-1 Ba-L, 4 nM; with SLKA, 2 nM; in the series on HIV-1 ADA it was 7 nM. In addition, the IC50 in the series with Subtype A RW/92/016 is 1 nM; in the series on HIV-2 (CDC 310319) (read-out: IC50), 0.4 nM; in the series with Subtype C BR/92/025 (read-out: IC50), 5 nM; in the series with Subtype D UG/92/046 it was 1 nM; with Subtype F BR/93/020 (read-out: IC50), 3 nM; in the series on Subtype G Jv1083 (read-out: IC50), 6 nM. Also, the IC50 was 2 nM with SIVmac251 (read-out: IC50), 3 nM in the series with Subtype O BCOF-01 and 3 nM with WeJo. In addition, the CC50 in the series on monocyte/macrophages is 1000 nM.

Regarding “dextran sulfate, 17-20% sulfur, molecular weight 39,700 [DES 17-20% Sulfation]”, in the series with HIV-1 RoJo (HIV-1 RoJo, PBMCs, Example 6), the “IC50 (50% inhibition of virus replication)” value is 0.5 µg/mL and 1.0 µg/mL. Besides, in the series with HIV-1 RoJo, the “anti-viral activity against HIV-1 RoJo virus” value (“anti-viral activity” below) was “significant anti-viral activity”.

As for “sulfated dextran, 9.5% sulfur, molecular weight 30,000 [DES 9.5% Sulfation]”, the “fold less active than DES […] Sulfation” value in the series on HIV-1 RoJo (HIV-1 RoJo infected PBMCs, Example 7) stood at 37 fold; with HIV-1 RoJo (setting [3]) it was 12 fold. For the same molecule, the “IC50 (50% inhibition of virus replication)” value with HIV-1 RoJo (HIV-1 RoJo, PBMCs, Example 6) worked out at 19.4 µg/mL. For the same molecule, the “fold less active than DES 17-20% Sulfation” value in the series with HIV-1 RoJo (setting [3]) is given as 39 fold. Also, the “anti-viral activity” value with HIV-1 RoJo is “significant anti-viral activity”. The “IC50s, range over the virus panel” value in series [2] is 5.1 to >100 μg/ml. The IC50 with MDR769 is 13 µg/mL; in the series with HIV-2 (CDC 310319), 5.1 µg/mL; in the series with Subtype G Jv1083, over 100 µg/mL.

“sulfated dextran, 12.2% sulfur, molecular weight 36,000 [DES 12.5% Sulfation]”: in the series with HIV-1 RoJo (HIV-1 RoJo, PBMCs, Example 6), the “IC50 (50% inhibition of virus replication)” value was 1.6 µg/mL. Further, the IC50 result with HIV-1 RoJo (Example 7) is “.7 µg/mL”; in series [1], “.8 µg/mL”; in the series on MDR769, “.7 µg/mL”; with Subtype C BR/92/025 it was 10.3 µg/mL; in the series with Subtype F BR/93/020, “.3 µg/mL”; in the series with Subtype E CMU02, “.7 µg/mL”. The IC50 in the series with Subtype G Jv1083 was 11.7 µg/mL; in the series with SIVmac251, “.6 µg/mL”. Further, the “anti-viral activity” value in the series on HIV-1 RoJo was “significant anti-viral activity”.
